For 23 molecules, IC50 results are on record in patent US20230348456A1, “QUINAZOLINONES, PHARMACEUTICAL COMPOSITIONS CONTAINING THE SAME, AND METHODS OF USING THE SAME” (Repare Therapeutics Inc., priority 2022, published 2023).

Usually IC50 stands for the concentration needed to halve the response being measured.

Chain of recombinant human Myt1 (Q99640 whole entry): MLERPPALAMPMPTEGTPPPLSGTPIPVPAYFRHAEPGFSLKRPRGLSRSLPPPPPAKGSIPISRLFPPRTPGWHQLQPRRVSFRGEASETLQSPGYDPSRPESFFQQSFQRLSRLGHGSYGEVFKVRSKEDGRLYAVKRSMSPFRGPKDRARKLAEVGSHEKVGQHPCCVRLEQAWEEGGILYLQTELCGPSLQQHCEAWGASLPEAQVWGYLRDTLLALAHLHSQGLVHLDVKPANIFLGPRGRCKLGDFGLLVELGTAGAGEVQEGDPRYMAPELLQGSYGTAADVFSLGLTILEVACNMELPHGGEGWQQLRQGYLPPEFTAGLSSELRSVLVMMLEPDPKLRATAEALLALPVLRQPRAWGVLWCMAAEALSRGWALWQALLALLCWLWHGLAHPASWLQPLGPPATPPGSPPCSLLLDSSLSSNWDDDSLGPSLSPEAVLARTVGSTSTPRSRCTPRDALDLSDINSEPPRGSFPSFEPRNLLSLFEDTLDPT

The experiment has as its target recombinant human Myt1 (Homo sapiens (Human), UniProt Q99640). The experiment is described as follows: Myt1 enzymatic assay (ADP-Glo kinase assay). Format: biochemical. The conditions noted are these: recombinant human Myt1 18 nM, ATP 10 μM. As for the experimental part: Detection of Myt1 kinase activity utilized a recombinant human Myt1 kinase assay measuring the hydrolysis of ATP using a commercially available ADP-Glo Assay (ADP-Glo™ Kinase Assay from Promega, 10 000 assays, #V9102). Briefly, 5 μL recombinant human Myt1 (full length PKMYT1 recombinant human protein expressed in insect cells from Thermo Fisher #A33387; ˜80% purity) was prepared in reaction buffer (70 mM HEPES, 3 mM MgCl2, 3 mM MnCl2, 50 μg/ml PEG 20000, 3 μM Na-orthovanadate, 1.2 mM DTT) and added to 384 well white polystyrene, flat bottom well, non-treated, microplate (Corning #3572). After this, 5 μL of compounds (diluted in reaction buffer to 0.5% DMSO) was added to the microplate and the plate was spun briefly and incubated at 22° C. for 15 minutes. Ultra-Pure Adenosine Triphosphate (ATP) solution (ADP-Glo kit from Promega) was diluted in reaction buffer and 5 μL was added to the microplate, spun down briefly and incubated for 60 minutes at 30° C. The final Myt1 enzyme concentration was 18 nM and the final ATP concentration was 10 μM. After the 60-minute incubation, 15 μL of ADP-Glo reagent was added and the plate was spun briefly and sealed and incubated in the dark for 40 minutes at 22° C. Following this, 30 μL of kinase detection reagent was added per well and the plate was spun briefly, sealed and incubated for 45-60 minutes at 22° C. in the dark. Luminescence was read using the Envision (250 ms integration). The IC50 and the % max inhibition were calculated for each inhibitor compound tested.
`Cc1ccc(O)c(C)c1-c1cc(-c2cnn(C3CC3)c2)c2nc(-c3ccncc3)[nH]c(=O)c2c1N` (atropisomer, axis not shown) [Compound 27]: the IC50 is 2 nM.
With `Cc1ccc(O)c(C)c1-c1cc(C2CC2)c2nc(-c3ccncc3)[nH]c(=O)c2c1N` (single isomer, unassigned) [Compound 22, 5-amino-8-cyclopropyl-6-(3-hydroxy-2,6-dimethyl-phenyl)-2-(4-pyridyl)-3H-quinazolin-4-one], the IC50 turned out to be 3 nM.
The value for `Nc1c(-c2cccc3[nH]ncc23)cc(-c2nccs2)c2nc(-c3ccccc3)[nH]c(=O)c12` [Compound 1, 5-amino-6-(1H-indazol-4-yl)-2-phenyl-8-(thiazol-2-yl)quinazolin-4(3H)-one] was 4 nM.
With `Nc1c(-c2cccc3[nH]ncc23)cc(-c2nccs2)c2nc(-c3ccc(N4CCOCC4)nc3)[nH]c(=O)c12` [Compound 2], the IC50 is 15 nM.
For `Cc1ccc(-c2nc3c(-c4nccs4)cc(-c4cccc5[nH]ncc45)c(N)c3c(=O)[nH]2)cc1` [Compound 3], the IC50 was determined as 33 nM.
Take `Nc1ccc(-c2nc3c(-c4nccs4)cc(-c4cccc5[nH]ncc45)c(N)c3c(=O)[nH]2)cn1` [Compound 4]: the IC50 came out at 5 nM.
Take `N#Cc1ccc(-c2nc3c(-c4nccs4)cc(-c4cccc5[nH]ncc45)c(N)c3c(=O)[nH]2)cc1` [Compound 5]: the IC50 was found to be 89 nM.
The value for `Nc1c(-c2cccc3[nH]ncc23)cc(-c2nccs2)c2nc(-c3ccc(-c4ccccc4)cc3)[nH]c(=O)c12` [Compound 6] was more than 2000 nM; that for `Nc1c(-c2cccc3[nH]ncc23)cc(-c2nccs2)c2nc(C3CC3)[nH]c(=O)c12` [Compound 8] was 131 nM.
The value for `Cc1nc2c(-c3nccs3)cc(-c3cccc4[nH]ncc34)c(N)c2c(=O)[nH]1` [Compound 9] was 47 nM; that for `Nc1c(-c2cccc3[nH]ncc23)cc(Br)c2nc(-c3ccc(N4CCNCC4)nc3)[nH]c(=O)c12` [Compound 10] was 3 nM; that for `Nc1c(-c2cccc3[nH]ncc23)cc(Br)c2nc(-c3ccc(N4CCN(C5CC5)C(=O)C4)nc3)[nH]c(=O)c12` [Compound 11] was 5 nM.
For `CN(C)c1ccc(-c2nc3c(Br)cc(-c4cccc5[nH]ncc45)c(N)c3c(=O)[nH]2)cn1` [Compound 12], the IC50 came to 9 nM.
Take `Nc1c(-c2cccc3[nH]ncc23)cc(-c2nccs2)c2nc(C3CCOCC3)[nH]c(=O)c12` [Compound 13]: the IC50 amounted to 1410 nM.
The value for `CS(=O)(=O)c1ccc(-c2nc3c(-c4nccs4)cc(-c4cccc5[nH]ncc45)c(N)c3c(=O)[nH]2)cc1` [Compound 14] was 6 nM; that for `Nc1c(-c2cccc3[nH]ncc23)cc(-c2nccs2)c2nc(-c3ccnc(N4CCOCC4)c3)[nH]c(=O)c12` [Compound 15, 5-amino-6-(1H-indazol-4-yl)-2-(2-morpholinopyridin-4-yl)-8-(thiazol-2-yl)quinazolin-4(3H)-one] was 10 nM.
As for `Nc1ccc(-c2nc3c(-c4nccs4)cc(-c4cccc5[nH]ncc45)c(N)c3c(=O)[nH]2)cc1` [Compound 16], the figure is 54 nM.
The value for `CC(=O)Nc1ccc(-c2nc3c(-c4nccs4)cc(-c4cccc5[nH]ncc45)c(N)c3c(=O)[nH]2)cc1` [Compound 17] was 78 nM; that for `Nc1c(-c2cccc3[nH]ncc23)cc(-c2nccs2)c2nc(-c3cccc(N4CCOCC4)c3)[nH]c(=O)c12` [Compound 18] was 9 nM.
Take `Nc1c(-c2cccc3[nH]ncc23)cc(Br)c2nc(-c3ccc(NC4CCOC4)nc3)[nH]c(=O)c12` (centres unmarked) [Compound 19]: the IC50 turned out to be 3 nM.
`Cc1cccc(-c2nc3c(-c4nccs4)cc(-c4cccc5[nH]ncc45)c(N)c3c(=O)[nH]2)c1` [Compound 20]: the IC50 is 10 nM.
Turning to `N#Cc1cccc(-c2nc3c(-c4nccs4)cc(-c4cccc5[nH]ncc45)c(N)c3c(=O)[nH]2)c1` [Compound 21], the IC50 stood at 6 nM.
In the case of `Nc1c(-c2cccc3[nH]ncc23)cc(Br)c2nc(-c3ccc(NCCN4CCCC4)nc3)[nH]c(=O)c12` [Compound 23], the IC50 turned out to be 4 nM.
